Data: patent publication US7038049B2, “Haloanilino quinazolines and therapeutic use thereof” (Parker Hughes Institute, priority 1999, dated 2006)

What was measured:
mice = assay: Single bolus dose toxicity in mice; type: in vivo
Experimental: (§1) HI-P131 was not toxic to mice at intraperitoneal single bolus doses ranging from 0.5 mg/kg to 250 mg/kg. […] Thus, the maximum tolerated dose (MlD) of HI-P131 was not reached at 250 mg/kg. We next examined the pharmacokinetic features of HI-P131 in mice. A two-compartment pharmacokinetic model was fit to the pharmacokinetics data obtained following the intravenous (i.v.) or intraperitoneal (i.p.) administration of a single non-toxic 12.5 mg/kg bolus dose of HI-P131.

[1] = Single bolus dose toxicity in mice; type: in vivo; details: mouse, in vivo, ip
Experimental: as §1

[2] = test system: U373 human brain tumor cells; assay: MTT cytotoxicity assay, U373; type: cell-based; details: Homo sapiens, U373 MG, Table 4, OH substituted, 24–36 hours
Experimental: (§2) The cytotoxicity assay of various compounds against human tumor cell lines was performed using the MTT (3-[4,5-dimethylthiazol-2-yl]-2,5-diphenyl tetrazolium bromide) assay (Boehringer Mannheim Corp., Indianapolis, Ind.). Briefly, exponentially growing tumor cells were seeded into a 96-well plate at a density of 2.5×10^4 cells/well and incubated for 36 hours at 37° C. prior to drug exposure. On the day of treatment, culture medium was carefully aspirated from the wells and replaced with fresh medium containing the quinazoline compounds at concentrations ranging from 0.1 to 250 μM. Triplicate wells were used for each treatment.
(§3) Human cell lines were obtained from American Type Culture Collection (Rockville, Md.) and maintained as a continuous cell line in Dulbecco's modified Eagles' medium supplemented with 10% fetal bovine serum and antibiotics. Cells used in this study include human leukemia cells (NALM-6 and MOLT-3), human breast cancer cells ([…]), human prostate cancer cells (PC3), and human brain tumor cells (U373).
(§4) The cells were incubated with the various compounds for 24–36 hours at 37° C. in a humidified 5% CO2 atmosphere. To each well, 10 μl of MTT (0.5 mg/ml final concentration) was added and the plates were incubated at 37° C. for 4 hours to allow MTT to form formazan crystals by reacting with metabolically active cells. The formazan crystals were solubilized overnight at 37° C. in a solution containing 10% SDS in 0.01 M HCl. The absorbance of each well was measured in a microplate reader (Labsystems) at 540 nm and a reference wavelength of 690 nm. To translate the OD 540 values into the number of live cells in each well, the OD 540 values were compared to those on standard OD 540—versus—cell number curves generated for each cell line. The percent survival was calculated using the formula:
(§5) [formula] The IC50 values were calculated by non-linear regression analysis. Detection of Apoptosis

[3] = test system: BT20 human breast cancer cells; assay: MTT cytotoxicity assay, BT20; type: cell-based; details: Homo sapiens, BT-20, Table 4, OH substituted, 24–36 hours
Experimental: as §2, §3, §4, §5

[4] = test system: MOLT-3 human leukemia cells; assay: MTT cytotoxicity assay, MOLT-3; type: cell-based; details: Homo sapiens, MOLT-3, Table 4, OH substituted, 24–36 hours
Experimental: as §2, §3, §4, §5

[5] = test system: NALM-6 human leukemia cells; assay: MTT cytotoxicity assay, NALM-6; type: cell-based; details: Homo sapiens, NALM-6, Table 4, OH substituted, 24–36 hours
Experimental: as §2, §3, §4, §5

[6] = Pharmacokinetic study in mice; type: in vivo; details: mouse, plasma, iv, single 12.5 mg/kg bolus, two-compartment model, read-out: Estimated maximum plasma concentration (Cmax)
Experimental: In pharmacokinetic studies, mice were injected either intravenously (i.v.) via the tail vein or intraperitoneally (i.p.) with a bolus dose of 300 μg/mouse (˜12.5 mg/kg=34 μmols/kg) of HI-P131. Blood samples were obtained from the ocular venous plexus by retroorbital venupuncture prior to and at 3 minutes, 5 minutes, 10 minutes, 15 minutes, 30 minutes, 45 minutes and 1 hour, 2 hours, 4 hours, and 8 hours after administration of HI-P 131. All collected blood samples were heparinized and centrifuged at 7,000 xg for 10 minutes in a microcentrifuge to obtain plasma. The plasma samples were stored at −20° C. until analysis. Aliquots of plasma were used for extraction and HPLC analysis. […] The area under the concentration time curve (AUC) was calculated by the trapezoidal rule between first (0 h) and last sampling time plus C/k, where C is the concentration of last sampling and k is the elimination rate constant. Systemic clearance (CL) was determined by dividing the dose by the AUC. The apparent volume of distribution at steady-state was calculated using the following equation, Vss=Dose·AUMC/(AUC)^2. […]
A highly sensitive quantitative HPLC detection method (Chen et al., 1998, J. Chromatography B (Biomedical sciences), in press) was used to determine the pharmocokinetics of HI-P131. […]

Question: With `COc1cc2ncnc(Nc3ccc(O)cc3)c2cc1OC` [HI-P131, 4-(4′-Hydroxylphenyl)-amino-6,7-dimethoxyquinazoline] as the compound, how does the “Side effects or death of toxicity” value (mice; 50 mice, 30 day observation period) read?
Answer: None of the 50 mice treated with HI-P131 experienced side effects or died of toxicity

Question: What about the “Histopathologic lesions in organs” value (mice; mouse, in vivo) of the same compound?
Answer: No histopathologic lesions

Question: And the Toxicity to mice (mice; mouse, in vivo)?
Answer: not toxic

Question: And the MTD at 30 day [1]?
Answer: > 250 mg/kg

Question: And the IC50 [2]?
Answer: > 250 µM

Question: What about the IC50 [3] of the same compound?
Answer: > 250 µM

Question: And the IC50 [4]?
Answer: 38.6 µM

Question: And the IC50 [5]?
Answer: 32.1 µM

Question: What about the Cmax [6] of the same compound?
Answer: 85.6 µM
